# According to PMC9346113, “Therapeutic impact of BET inhibitor BI 894999 treatment: backtranslation from the clinic” (British Journal of Cancer, 2022):
# Legend:
# [1] = biological target: BRD4-BD1 (Homo sapiens, UniProt O60885); experiment: BRD4 AlphaLISA assay, BRD4-BD1; format: binding; conditions: displacement of acetyl-histone H4 peptide (Lys5, 8, 12, 16)
# Description: (§1) This bead-based proximity assay is based on the competitive displacement of a histone peptide (acetyl-histone H4/Lys5, 8, 12, 16) from the human bromodomain [22].
# [2] = biological target: BRD4-BD2 (Homo sapiens, UniProt O60885); experiment: BRD4 AlphaLISA assay, BRD4-BD2; format: binding; conditions: displacement of acetyl-histone H4 peptide (Lys5, 8, 12, 16)
# Description: as §1
# [3] = test system: NC lines (Ty-82) versus AML cell lines (MV-4-11); experiment: Incucyte caspase-3/7 apoptosis / cell death analysis; format: cell-based, human; conditions: in contrast to AML cell lines, Supplementary Fig. S3
# Experimental: Live-cell imaging was performed with the Incucyte® S3 Live-Cell Analysis System as described previously for Incucyte® Zoom.
# Incucyte analysis. Ty-82 cells (NC) or MV-4-11 (AML) cells were treated with BI 894999 at the concentrations indicated and analyzed over time with the IncuCyte™Caspase-3/7 Apoptosis Assay Reagent (Essenbioscience Cat No 4440). Cell confluence (left) and green fluorescence as a measure of caspase 3/7 activation (right) were monitored for up to 7 days with images taken every 3 hours.
# [4] = test system: T1, BRD4-NUT; experiment: Immunofluorescence staining of NUT megadomains, Ty-82; format: cell-based, human
# T1 construct: endogenous in cells; host or cells: Ty-82 NUT carcinoma cells
# Experimental: Cells were seeded on four-well chamber slides (Merck Millipore, #PEZGS0416). After treatment, cells were fixed with 4% PFA (16% Solution, Thermo Fischer #28908 Paraformaldehyde, diluted 1:4 in PBS), permeabilised with 0,1% TX-100 (Sigma #93443, diluted in PBS). After blocking in blocking buffer (10% normal goat serum, Sigma #G9023–10ml, diluted in blocking solution: 2% BSA/PBS, Sigma #A7284–50ml, diluted 1:15 in PBS), the first antibody mAB rabbit anti-NUT 1:1000 (clone C52B1, Cell Signaling #3625) in blocking buffer was added, followed by incubation with the 2nd antibody goat anti-rabbit Alexa*488 1:1000 (Thermo Fisher, #A-11008) in blocking buffer in the dark. Cells were mounted with ProLong Gold Antifade Mountant with DAPI (Thermo Fisher, #P36931) and analysed using a Laser scanning microscope (LSM700). […]
# Immunofluorescence staining of NUT megadomains on NC Ty-82 treated with BI with BI 894999 30nM for 1 h, then changed to 10 nM or 5 nM or 2.5 nM or control for 24 h.
# [5] = Phase I trial MTD and platelet counts (NCT02516553); format: in vivo; conditions: patients
# Experimental: Schedule B (NCT02516553): daily oral treatment from Day 1 to Day 14 at 2.5 mg/day followed by a week-off in 3-week cycles. Schedule C (NCT02516553): one week-on, one week-off treatment, repeated every two weeks in 4-week cycles with, at each treatment week, a loading dose (6 mg) on Day 1 followed by a maintenance dose (3 mg per day) on the following 6 days.
# [6] = test system: Ty-82 xenograft (BRD4-NUT); experiment: Ty-82 NC xenograft model; format: in vivo, mice; conditions: 2 mg/kg BI 894999 p.o. daily
# Description: Mice were group-housed (8–10 mice per cage) under pathogen-free and controlled environmental conditions (21 ± 1.5 C temperature, 55 ± 10% humidity) in an AAALAC accredited facility and handled according to the institutional, governmental and European Union guidelines (Austrian Animal Protection Laws, GV-SOLAS and FELASA guidelines). Animal studies were approved by the internal ethics committee and the local government committee. Mice were 6- to 8-week-old female CIEA NOG purchased from Taconic, Denmark (NOD.Cg-Prkdc^scid Il2rg^tm1Sug/JicTac). 5 × 10^6 NC tumour cells were injected subcutaneously into the right flank of the mice (1 site per mouse). Mice were randomly distributed between the treatment and the vehicle control when tumours were well established and had reached volumes of 100–150 mm^3. Compounds were suspended in 0.5% Natrosol and administered once daily intra-gastral by gavage needle. Tumour diameters were measured three times a week with a calliper. […] Within each subtopic the p-values of the efficacy parameters were adjusted for multiple comparisons according to Bonferroni–Holm. The p-values of the tolerability parameter remained unadjusted in order not to overlook a possible adverse effect. The level of significance was fixed at α = 5%. An adjusted p-value of less than 0.05 was considered to show a statistically significant difference between the groups. The statistical evaluation was prepared using the software Graph Pad Prism.
# [7] = PK analysis in mouse plasma; format: in vivo; conditions: CIEA NOG (NOD.Cg-Prkdc^scid Il2rg^tm1Sug/JicTac), po, mice, 2 mg/kg p.o.
# Description: PK analysis in mouse plasma. Oral treatment at the indicated doses. Sampling at the indicated timepoints.
# [8] = test system: T2, BRD3-NUT; experiment: IHC of 10326 xenograft tumours, NUT protein; format: in vivo, mice; conditions: day 21, 2 mg/kg BI 894999
# T2 construct: endogenous in cells; host or cells: 10326 NUT carcinoma cells, in culture (A11) and as subcutaneous xenograft tumours in NOG mice (A26)
# Experimental: Immunohistochemistry was performed on formalin-fixed, paraffin-embedded tumour tissue using antibodies against human Ki67(Cell Signaling #9027, 1:400 dilution), anti-human mitochondria (Abcam ab92824, 1:1000 dilution) and against endogenous NUT protein (Cell Signaling #3625, 1:50 dilution) used to detect NUT fusion proteins. Digital images of whole tissue sections were acquired using a Leica SCN400 histology scanner (Leica Microsystems). Ki67-positive index was evaluated using Halo Software V. 3.2 (Indica lab). Regions of interest (ROIs) within the tissue sections were first identified using Halo Software via machine learning technology across pathological samples and tissue control, within these ROIs, nuclei were detected and classified as positive or negative based on IHC staining thresholds.
# BRD3-NUT 10326 tumor sections after treatment with 2 mg/kg BI 894999, 5 mg/kg or 10 mg/kg CCS1477 and the combination of both. IHC staining for NUT protein.
# [9] = test system: human solid and haematological cancer lines as well as primary patient-derived AML samples; conditions: cited from earlier work
structure (smiles),measurement,setting,value
CNc1nc(-c2nc3ccc(N4CCN(C)CC4)cc3n2Cc2ccccc2)cn2c(C)nnc12 [BI 894999],IC50,[1],5 ± 3 nM
same,IC50,[2],41 ± 30 nM
same,fold higher compound concentrations required to undergo cell death,[3],> 100 fold
same,time to detachment of BRD-NUT from chromatin,"[4]; 10–30 nM in Ty-82, 3–10 nM in 10326",≤ 30 min
same,concentration at which BRD4-NUT detaches from chromatin / is re-distributed,"[4]; Ty-82, 30 min treatment",10 to 30 nM
same,speckled staining (BRD-NUT bound to chromatin) after washout,[4]; washout experiments,quickly restored
same,tolerability as measured by platelet nadir counts,"[5]; Schedule C compared to Schedule B at MTD, comparable 6-week cumulative dose (72 vs 70 mg)",better tolerability
same,thrombocytopenia events,[5]; Schedule C versus Schedule B at equivalent 6-week cumulative dose,less >Grade 3 thrombocytopenia events
same,"MTD, loading dose","[5]; Schedule C, Day 1",6 mg
same,"MTD, maintenance dose","[5]; Schedule C, following 6 days",3 mg
same,TGI (tumour growth inhibition),[6],5%
same,Cmax,[7],10 nM
same,speckled megadomain localisation (NUT staining),[8],complete loss
same,GI50 values,[9]; AML cell lines,single-digit nM range
same,"fold more potent compared to other BET inhibitors (GSK525762, OTX015, JQ1)",[9]; cellular potency in large panels,at least 10 fold
